Measurements: paper PMC5218480 (PLoS ONE, 2017)

Test system: MV-4-11 cells
Assay: Gene expression microarray analysis (Affymetrix PrimeView) and GSEA
Type: cell-based, human
Parameters: RFU PODN (11730768_x_at) / Fold change /veh PODN (11730768_x_at) / RFU LINC00158 (11744669_a_at) / Fold change /veh LINC00158 (11744669_a_at) / RFU DUSP10 (11751237_a_at) / Fold change /veh DUSP10 (11751237_a_at) / RFU ID3 (11757404_x_at) / Fold change /veh ID3 (11757404_x_at) / RFU PLEKHG5 (11737974_s_at) / Fold change /veh PLEKHG5 (11737974_s_at) / RFU LRRC4B (11730491_at) / Fold change /veh LRRC4B (11730491_at) / RFU GIMAP4 (11747438_a_at) / Fold change /veh GIMAP4 (11747438_a_at) / RFU KRT8 (11758183_x_at) / Fold change /veh KRT8 (11758183_x_at) / RFU CNN1 (11734310_a_at) / Fold change /veh CNN1 (11734310_a_at) / RFU VPS37D (11726825_at) / Fold change /veh VPS37D (11726825_at) / RFU C10orf10 (11716522_x_at) / Fold change /veh C10orf10 (11716522_x_at) / RFU KIR2DL2 /// KIR2DL4 /// KIR2DL5A /// KIR2DL5B /// KIR2DS1 /// KIR2DS2 /// KIR2DS3 /// KIR2DS4 /// KIR3DL3 /// KIR3DL3 /// KIR3DS1 (11738374_at) / Fold change /veh KIR2DL2 /// KIR2DL4 /// KIR2DL5A /// KIR2DL5B /// KIR2DS1 /// KIR2DS2 /// KIR2DS3 /// KIR2DS4 /// KIR3DL3 /// KIR3DL3 /// KIR3DS1 (11738374_at) / RFU C1QL1 (11718748_at) / Fold change /veh C1QL1 (11718748_at) / RFU TMPRSS4 (11747572_a_at) / Fold change /veh TMPRSS4 (11747572_a_at) / RFU HAMP (11756126_x_at) / Fold change /veh HAMP (11756126_x_at) / RFU RNFT2 (11725882_a_at) / Fold change /veh RNFT2 (11725882_a_at) / RFU NR4A2 (11747474_a_at) / Fold change /veh NR4A2 (11747474_a_at) / RFU ABCC12 (11746883_a_at) / Fold change /veh ABCC12 (11746883_a_at) / RFU TMEM136 (11760407_x_at) / Fold change /veh TMEM136 (11760407_x_at) / RFU CLDN22 /// WWC2 (11732394_at) / Fold change /veh CLDN22 /// WWC2 (11732394_at) / RFU HLA-DPB1 (11760878_x_at) / Fold change /veh HLA-DPB1 (11760878_x_at) / RFU SPINT1 (11716480_a_at) / Fold change /veh SPINT1 (11716480_a_at) / RFU GAP43 (11754022_s_at) / Fold change /veh GAP43 (11754022_s_at) / RFU A4GNT (11735810_at) / Fold change /veh A4GNT (11735810_at) / RFU PRB3 (11715151_x_at) / Fold change /veh PRB3 (11715151_x_at) / RFU TUBB4B (11761932_at) / Fold change /veh TUBB4B (11761932_at) / RFU CAPN14 (11732068_a_at) / Fold change /veh CAPN14 (11732068_a_at) / RFU TMCC2 (11721928_a_at) / Fold change /veh TMCC2 (11721928_a_at) / RFU IRGQ (11745062_a_at) / Fold change /veh IRGQ (11745062_a_at) / RFU FAM174B (11720279_a_at) / Fold change /veh FAM174B (11720279_a_at) / RFU TMPRSS4 (11748680_a_at) / Fold change /veh TMPRSS4 (11748680_a_at) / RFU FAM212B (11763350_a_at) / Fold change /veh FAM212B (11763350_a_at) / RFU PLEKHG5 (11743358_a_at) / Fold change /veh PLEKHG5 (11743358_a_at) / RFU ZSCAN30 (11745921_a_at) / Fold change /veh ZSCAN30 (11745921_a_at) / RFU CMKLR1 (11741424_a_at) / Fold change /veh CMKLR1 (11741424_a_at) / RFU LOC101060620 /// MAPK8IP1 (11723275_at) / Fold change /veh LOC101060620 /// MAPK8IP1 (11723275_at) / RFU SPTSSB (11747773_x_at) / Fold change /veh SPTSSB (11747773_x_at) / RFU PRSS12 (11739890_at) / Fold change /veh PRSS12 (11739890_at) / RFU BIN1 (11741810_x_at) / Fold change /veh BIN1 (11741810_x_at) / RFU WNT11 (11732464_a_at) / Fold change /veh WNT11 (11732464_a_at) / RFU C10orf10 (11716521_a_at) / Fold change /veh C10orf10 (11716521_a_at) / RFU C5orf56 (11738089_at) / Fold change /veh C5orf56 (11738089_at) / RFU CYB561 (11721691_x_at) / Fold change /veh CYB561 (11721691_x_at) / RFU ANKRD19P (11752326_a_at) / Fold change /veh ANKRD19P (11752326_a_at) / RFU OR2T12 /// OR2T33 /// OR2T8 (11738714_s_at) / Fold change /veh OR2T12 /// OR2T33 /// OR2T8 (11738714_s_at) / RFU VCAN (11748164_a_at) / Fold change /veh VCAN (11748164_a_at) / RFU JSRP1 (11732532_at) / Fold change /veh JSRP1 (11732532_at) / RFU KRTAP10-11 (11738290_x_at) / Fold change /veh KRTAP10-11 (11738290_x_at) / RFU MYO3A (11730013_a_at) / Fold change /veh MYO3A (11730013_a_at) / RFU EBF3 (11725865_a_at) / Fold change /veh EBF3 (11725865_a_at) / RFU CAMK2N1 (11719241_x_at) / Fold change /veh CAMK2N1 (11719241_x_at) / RFU C5orf56 (11738088_a_at) / Fold change /veh C5orf56 (11738088_a_at) / RFU OLFML3 (11715873_a_at) / Fold change /veh OLFML3 (11715873_a_at) / RFU LOC100653217 /// NTM (11731650_a_at) / Fold change /veh LOC100653217 /// NTM (11731650_a_at) / RFU MAPK11 (11762145_a_at) / Fold change /veh MAPK11 (11762145_a_at) / RFU FIZ1 (11724087_x_at) / Fold change /veh FIZ1 (11724087_x_at) / RFU OASL (11726364_x_at) / Fold change /veh OASL (11726364_x_at) / RFU SOX15 (11748057_x_at) / Fold change /veh SOX15 (11748057_x_at) / RFU CD79A (11719716_a_at) / Fold change /veh CD79A (11719716_a_at) / RFU HIST1H1D (11736915_at) / Fold change /veh HIST1H1D (11736915_at) / RFU CASKIN2 (11723855_a_at) / Fold change /veh CASKIN2 (11723855_a_at) / RFU LOC730098 (11760151_x_at) / Fold change /veh LOC730098 (11760151_x_at) / RFU OR4N2 (11742367_at) / Fold change /veh OR4N2 (11742367_at) / RFU PRRT2 (11749266_a_at) / Fold change /veh PRRT2 (11749266_a_at) / RFU SNX32 (11753110_a_at) / Fold change /veh SNX32 (11753110_a_at) / RFU CDHR5 (11726645_a_at) / Fold change /veh CDHR5 (11726645_a_at) / RFU RCAN1 (11760418_a_at) / Fold change /veh RCAN1 (11760418_a_at) / RFU FAM167A (11723789_a_at) / Fold change /veh FAM167A (11723789_a_at) / RFU FAM26E (11764081_at) / Fold change /veh FAM26E (11764081_at) / RFU ISYNA1 (11749810_s_at) / Fold change /veh ISYNA1 (11749810_s_at) / RFU ACY1 (11761880_at) / Fold change /veh ACY1 (11761880_at) / RFU 11764098_at / Fold change /veh 11764098_at / RFU SAMD14 (11745864_x_at) / Fold change /veh SAMD14 (11745864_x_at) / RFU NPB (11741838_a_at) / Fold change /veh NPB (11741838_a_at) / RFU TMPRSS6 (11731388_a_at) / Fold change /veh TMPRSS6 (11731388_a_at) / RFU KRTAP10-2 (11738614_at) / Fold change /veh KRTAP10-2 (11738614_at) / RFU ARHGAP8 /// PRR5-ARHGAP8 (11727945_x_at) / Fold change /veh ARHGAP8 /// PRR5-ARHGAP8 (11727945_x_at) / RFU KRTAP5-7 /// NADSYN1 (11734609_at) / Fold change /veh KRTAP5-7 /// NADSYN1 (11734609_at) / RFU RASL12 (11751679_a_at) / Fold change /veh RASL12 (11751679_a_at) / RFU CDKN2B (11736163_a_at) / Fold change /veh CDKN2B (11736163_a_at) / RFU PRF1 (11729649_at) / Fold change /veh PRF1 (11729649_at) / RFU, ZNF638 /// ZNF638-IT1 / Fold change vs veh, ZNF638 /// ZNF638-IT1 / RFU, PANK3 / Fold change vs veh, PANK3 / RFU, SH3YL1 / Fold change vs veh, SH3YL1 / RFU, ZEB2 / Fold change vs veh, ZEB2 / RFU, NRIP1 / Fold change vs veh, NRIP1 / RFU, PTTG1IP / Fold change vs veh, PTTG1IP / RFU, CAPN2 / Fold change vs veh, CAPN2 / RFU, MED14 / Fold change vs veh, MED14 / RFU, SNORA58 / Fold change vs veh, SNORA58 / RFU, C1orf63 / Fold change vs veh, C1orf63 / RFU, LRRFIP1 / Fold change vs veh, LRRFIP1 / RFU, NDUFAF7 / Fold change vs veh, NDUFAF7 / RFU, SLC12A2 / Fold change vs veh, SLC12A2 / RFU, IBTK / Fold change vs veh, IBTK / RFU, ESF1 / Fold change vs veh, ESF1 / Fold change vs veh, TMEM50B / RFU, TAOK1 / Fold change vs veh, TAOK1 / RFU, ACBD3 / Fold change vs veh, ACBD3 / RFU, TMA16 / Fold change vs veh, TMA16 / RFU, RWDD3 / Fold change vs veh, RWDD3 / RFU, BCAT1 / Fold change vs veh, BCAT1 / RFU, EDEM3 / Fold change vs veh, EDEM3 / RFU, TMEM33 / Fold change vs veh, TMEM33 / RFU, WDR75 / Fold change vs veh, WDR75 / RFU, AHCTF1 / Fold change vs veh, AHCTF1 / RFU, TFRC / Fold change vs veh, TFRC / RFU, ZDHHC17 / Fold change vs veh, ZDHHC17 / RFU, NOM1 / Fold change vs veh, NOM1 / RFU, ARL8B / Fold change vs veh, ARL8B / RFU, ZBTB11 / Fold change vs veh, ZBTB11 / RFU, TAMM41 / Fold change vs veh, TAMM41 / RFU, KIAA1704 /// LOC100996395 / Fold change vs veh, KIAA1704 /// LOC100996395 / RFU, ING1 / Fold change vs veh, ING1 / RFU, TRMT61B / Fold change vs veh, TRMT61B / RFU, FUBP3 / Fold change vs veh, FUBP3 / RFU, TP53 / Fold change vs veh, TP53 / RFU, TNKS2 / Fold change vs veh, TNKS2 / RFU, ZFP14 / Fold change vs veh, ZFP14 / RFU, ACTR2 / Fold change vs veh, ACTR2 / RFU, PPP3R1 / Fold change vs veh, PPP3R1 / RFU, PIK3R1 / Fold change vs veh, PIK3R1 / RFU, HNRNPA1 / Fold change vs veh, HNRNPA1 / RFU, RNF170 / Fold change vs veh, RNF170 / RFU, ZNF28 / Fold change vs veh, ZNF28 / RFU, RNGTT / Fold change vs veh, RNGTT / RFU, OGT / Fold change vs veh, OGT / RFU, BRD1 / Fold change vs veh, BRD1 / RFU, MARS / Fold change vs veh, MARS / RFU, ZNF655 / Fold change vs veh, ZNF655 / RFU, FAHD1 / Fold change vs veh, FAHD1 / RFU, BDP1 / Fold change vs veh, BDP1 / RFU, LRRCC1 / Fold change vs veh, LRRCC1 / RFU, ARID1A / Fold change vs veh, ARID1A / RFU, ZNF146 / Fold change vs veh, ZNF146 / RFU, ZNF330 / Fold change vs veh, ZNF330 / RFU, GPN3 / Fold change vs veh, GPN3 / RFU, C9orf123 / Fold change vs veh, C9orf123 / RFU, N4BP2L2 / Fold change vs veh, N4BP2L2 / RFU, ARFIP1 / Fold change vs veh, ARFIP1 / RFU, FAM179B / Fold change vs veh, FAM179B / RFU, BCL10 / Fold change vs veh, BCL10 / RFU, UHRF1BP1L / Fold change vs veh, UHRF1BP1L / RFU, BET1 / Fold change vs veh, BET1 / RFU, CNOT2 / Fold change vs veh, CNOT2 / RFU, ZNF268 / Fold change vs veh, ZNF268 / Fold change vs veh, ZNF507 / RFU, DGCR2 / Fold change vs veh, DGCR2 / RFU, WDSUB1 / Fold change vs veh, WDSUB1 / Fold change vs veh, HSP90B1 /// MIR3652 / RFU, ADSS / Fold change vs veh, ADSS / RFU, GK / Fold change vs veh, GK / RFU, ZNF148 / Fold change vs veh, ZNF148 / RFU, TAF9 / Fold change vs veh, TAF9 / RFU, SLC1A5 / Fold change vs veh, SLC1A5 / RFU, SLMO2 / Fold change vs veh, SLMO2 / RFU, ABCC4 / Fold change vs veh, ABCC4 / RFU, LOC101060439 /// RAP1B / Fold change vs veh, LOC101060439 /// RAP1B / RFU, RFX7 / Fold change vs veh, RFX7 / RFU, GTPBP10 / Fold change vs veh, GTPBP10 / RFU, CNEP1R1 / Fold change vs veh, CNEP1R1 / RFU, BIVM-ERCC5 /// ERCC5 / Fold change vs veh, BIVM-ERCC5 /// ERCC5 / RFU, ILF3 / Fold change vs veh, ILF3 / RFU 11762660_at / Fold change /veh 11762660_at / RFU VCAN (11757783_s_at) / Fold change /veh VCAN (11757783_s_at) / RFU DDX43 (11728927_at) / Fold change /veh DDX43 (11728927_at) / RFU KRT8 (11758188_x_at) / Fold change /veh KRT8 (11758188_x_at) / RFU NKD1 (11759106_at) / Fold change /veh NKD1 (11759106_at) / RFU SRD5A1 (11742802_a_at) / Fold change /veh SRD5A1 (11742802_a_at) / RFU TPSAB1 /// TPSB2 (11721975_s_at) / Fold change /veh TPSAB1 /// TPSB2 (11721975_s_at) / RFU GSTM3 (11746129_a_at) / Fold change /veh GSTM3 (11746129_a_at) / RFU IL23R (11737362_x_at) / Fold change /veh IL23R (11737362_x_at) / RFU TMEM51 (11727254_a_at) / Fold change /veh TMEM51 (11727254_a_at) / RFU PIWIL2 (11732686_x_at) / Fold change /veh PIWIL2 (11732686_x_at) / RFU ORM1 (11744905_x_at) / Fold change /veh ORM1 (11744905_x_at) / RFU CCDC152 (11743942_at) / Fold change /veh CCDC152 (11743942_at) / RFU ECM1 (11717891_a_at) / Fold change /veh ECM1 (11717891_a_at) / RFU IL23R (11748794_a_at) / Fold change /veh IL23R (11748794_a_at) / RFU TNFAIP8L3 (11732012_x_at) / Fold change /veh TNFAIP8L3 (11732012_x_at) / RFU MBOAT4 (11741988_at) / Fold change /veh MBOAT4 (11741988_at) / RFU 11764193_at / Fold change /veh 11764193_at / RFU TMEM53 (11763286_at) / Fold change /veh TMEM53 (11763286_at) / RFU MAGEB2 (11727129_at) / Fold change /veh MAGEB2 (11727129_at) / RFU TMEM200A (11744735_a_at) / Fold change /veh TMEM200A (11744735_a_at) / RFU CCDC152 (11751479_a_at) / Fold change /veh CCDC152 (11751479_a_at) / RFU FAM211A (11726209_a_at) / Fold change /veh FAM211A (11726209_a_at) / RFU RGS16 (11746705_a_at) / Fold change /veh RGS16 (11746705_a_at) / RFU VCAN (11755009_s_at) / Fold change /veh VCAN (11755009_s_at) / RFU RHOB (11743442_s_at) / Fold change /veh RHOB (11743442_s_at) / RFU RGS16 (11720943_a_at) / Fold change /veh RGS16 (11720943_a_at) / RFU RGS16 (11720944_at) / Fold change /veh RGS16 (11720944_at) / RFU, VPS4B / Fold change vs veh, VPS4B / RFU, CREB1 / Fold change vs veh, CREB1 / RFU, DNAJC13 / Fold change vs veh, DNAJC13 / RFU, GNAQ / Fold change vs veh, GNAQ / RFU, CDK5R1 / Fold change vs veh, CDK5R1 / RFU, ZRANB3 / Fold change vs veh, ZRANB3 / RFU, CUL4A / Fold change vs veh, CUL4A / RFU, CCNY / Fold change vs veh, CCNY / RFU, UFL1 / Fold change vs veh, UFL1 / RFU, COG3 / Fold change vs veh, COG3 / RFU, DIAPH2 / Fold change vs veh, DIAPH2 / RFU, SKA2 / Fold change vs veh, SKA2 / RFU, AFF3 / Fold change vs veh, AFF3 / RFU, LMF1 / Fold change vs veh, LMF1 / RFU, IPO11 / Fold change vs veh, IPO11 / RFU, DFFB / Fold change vs veh, DFFB / RFU, FOXP1 / Fold change vs veh, FOXP1 / RFU, CARD8 / Fold change vs veh, CARD8 / RFU, STRN3 / Fold change vs veh, STRN3 / RFU, ADK / Fold change vs veh, ADK / RFU, RASSF2 / Fold change vs veh, RASSF2 / RFU, WIPF1 / Fold change vs veh, WIPF1 / RFU, LARP1B / Fold change vs veh, LARP1B / RFU, RASA1 / Fold change vs veh, RASA1 / RFU, RB1 / Fold change vs veh, RB1 / RFU, PPFIA1 / Fold change vs veh, PPFIA1 / RFU, MAT2A / Fold change vs veh, MAT2A / RFU, CCT5 / Fold change vs veh, CCT5 / RFU, WDR92 / Fold change vs veh, WDR92 / RFU, CUX1 / Fold change vs veh, CUX1 / RFU, TTC7A / Fold change vs veh, TTC7A / RFU, TMEM135 / Fold change vs veh, TMEM135 / RFU, DEPTOR / Fold change vs veh, DEPTOR / RFU, CPM / Fold change vs veh, CPM / RFU, DNAJB6 / Fold change vs veh, DNAJB6 / RFU, CACNA2D3 / Fold change vs veh, CACNA2D3 / RFU, DTX4 / Fold change vs veh, DTX4 / RFU, TFCP2 / Fold change vs veh, TFCP2 / RFU, GMCL1 /// GMCL1P1 / Fold change vs veh, GMCL1 /// GMCL1P1 / RFU, AEBP2 / Fold change vs veh, AEBP2 / RFU, SNHG1 /// SNORD22 /// SNORD25 /// SNORD26 /// SNORD27 /// SNORD28 /// SNORD29 /// SNORD31 / Fold change vs veh, SNHG1 /// SNORD22 /// SNORD25 /// SNORD26 /// SNORD27 /// SNORD28 /// SNORD29 /// SNORD31 / Fold change (Aza/veh), C12orf56 (ProbeSet 11735607_a_at) / Fold change (ACY-1035/veh), C12orf56 (ProbeSet 11735607_a_at) / Fold change (Aza/veh), FGFR1OP (ProbeSet 11751329_s_at) / Fold change (ACY-1035/veh), FGFR1OP (ProbeSet 11751329_s_at) / Fold change (Aza/veh), VPS36 (ProbeSet 11739960_a_at) / Fold change (ACY-1035/veh), VPS36 (ProbeSet 11739960_a_at) / RFU SYPL1 (11715823_x_at) / Fold change /veh SYPL1 (11715823_x_at) / RFU IGFBP7 (11715501_s_at) / Fold change /veh IGFBP7 (11715501_s_at) / RFU REEP3 (11722064_at) / Fold change /veh REEP3 (11722064_at) / RFU IGLL1 (11728026_x_at) / Fold change /veh IGLL1 (11728026_x_at): dose or concentration left out as unconfirmed
Conditions: MV-4-11 cells, 48 hours

## Nc1ccc(-c2cccs2)cc1NC(=O)c1ccc2c(c1)cc(C1CC1)n2CCN1CCOCC1 [ACY-1035]
  Fold change /veh ECM1 (11717891_a_at): 0.95
